Measured values published in PMC8465942, “Cyano- and Ketone-Containing Selenoesters as Multi-Target Compounds against Resistant Cancers” (Cancers, 2021).
“Also recorded” adds a separate entry of the source. Read-outs that look alike come from different tables or passages of the source. Marks after values point to notes of the source that are not given here.

Key:
[1] = test system: resistant Colo 320 colon adenocarcinoma cells expressing the ABCB1 transporter; test: Checkerboard combination assay with doxorubicin; format: cell-based, human; conditions: for Interaction with doxorubicin: in at least one of the ratios tested
[2] = test system: Colo 320/MDR-LRP human colonic adenocarcinoma cell line; test: Cytotoxicity (MTT) on resistant Colo 320 cells; format: cell-based; conditions: for IC50: Homo sapiens, read-out: Colo 320 (IC50 µM) Mean; for SI MRC-5/Colo 320: ratio IC50 non-tumour cells / IC50 cancer cells
In short: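 10^4 cells/well in RPMI-1640 were exposed to two-fold serial dilutions (0.19–100 μM) for 24 h at 37 °C. MTT was added for 4 h, then SDS/HCl overnight, with OD read at 540 nm (ref. 630 nm). IC50 = dose giving 50% growth reduction, from non-linear regression of triplicates.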

[3] = test system: B16 (skin melanoma); test: Cytotoxicity on B16 cells; format: cell-based, murine; conditions: ratio IC50 non-tumour cells / IC50 cancer cells
[4] = test system: HeLa (cervical adenocarcinoma); test: Cytotoxicity on HeLa cells; format: cell-based; conditions: Homo sapiens

Structure (SMILES) | Interaction with doxorubicin [1] | Type of Interaction ([1]; ratio 1.2:1, starting conc. 10 µM) | Type of Interaction ([1]; ratio 2.4:1, starting conc. 10 µM) | Type of Interaction ([1]; ratio 4.8:1, starting conc. 10 µM) | Type of Interaction ([1]; ratio 9.6:1, starting conc. 10 µM) | Type of Interaction ([1]; ratio 19.2:1, starting conc. 10 µM) | Type of Interaction ([1]; ratio 38.4:1, starting conc. 10 µM) | IC50 ([2]; COLO 320, 24 h, MTT) [µM] | SI MRC-5/Colo 320 [2] | SI MRC-5/B16 [3] | IC50 [4] [µM] | Type of Interaction ([1]; ratio 0.6:1, starting conc. 5 µM) | Type of Interaction ([1]; ratio 1.2:1, starting conc. 5 µM) | Type of Interaction ([1]; ratio 2.4:1, starting conc. 5 µM) | Type of Interaction ([1]; ratio 4.8:1, starting conc. 5 µM) | Type of Interaction ([1]; ratio 9.6:1, starting conc. 5 µM) | Type of Interaction ([1]; ratio 19.2:1, starting conc. 5 µM) | IC50 ([2]; COLO 320, 24 h) [µM]
N#CC[Se]C(=O)c1ccc(Br)cc1 [N3, Se-(Cyanomethyl) 4-Bromobenzoselenoate] | synergistic manner; also recorded: synergistic effect | Antagonism | Strong antagonism | Moderate synergism | Additive effect | Slight antagonism | Moderate antagonism | 4.37 | >6 * | >6 * | 2.4 | – | – | – | – | – | – | –
CC(=O)C[Se]C(=O)c1ccccc1C(F)(F)F [K4, Se-(2-Oxopropyl) 2-(Trifluoromethyl)benzoselenoate] | synergistic manner; also recorded: interact synergistically | – | – | – | – | – | – | – | 2.45 | 1.4 | 1.9 | Synergism | Additive effect | Additive effect | Moderate synergism | Slight synergism | Additive effect | 1.48
